US20250171417A1, “HETEROCYCLIC DERIVATIVE, AND COMPOSITION AND PHARMACEUTICAL USE THEREOF” (Xizang Haisco Pharmaceutical Co., Ltd., priority 2021, published 2025)

How the values were obtained:
Full-length AR (AR-FL) = test: Degradation experiment on full-length AR (AR-FL) in 22RV1 cells; format: cell-based; settings: 2 μM, 24 h
Method: (§1) Prostate cancer cells 22RV1 were purchased from ATCC, the cell medium was 1640+10% FBS, and the cells were cultured in an incubator at 37° C. under 5% CO2. On day 1, the cells in an exponential phase were collected. With a 1% css-FBS phenol red-free medium, the cell suspension was adjusted to a corresponding concentration and plated into a 6-well plate at 1 mL/well and 100000 cells/well. The next day, a 1% css-FBS phenol-free medium containing the compound to be tested was added, a 1% css-FBS phenol-free medium containing 0.2% DMSO was added to one well as DMSO vehicle control, and the 6-well plate was cultured in an incubator at 37° C. under 5% CO2. After 24 h, the cells were digested with pancreatin and collected into a 1.5 mL centrifuge tube. […] The supernatant protein samples were collected, and protein quantification was performed by a BCA method. AR-FL and AR-Vs were detected using fully automatic protein expression quantitative analysis, which involved diluting the protein to be tested to 1 mg/mL, 4 μL of the diluted protein samples were added to 1 μL of […] (provided in the kit), and the prepared samples were denatured at 95° C. for 5 min and placed on ice for use. […] The prepared reagents were successively added to an assay plate according to instructions of the kit and detected on an instrument. […]

[1] = tested on: AR splice variants (AR-Vs); test: Degradation experiment on AR splice variants (AR-Vs) in 22RV1 cells; format: cell-based; settings: 2 μM, 24 h
Method: as §1

[2] = Pharmacokinetic test in rats; format: in vivo; settings: rat, plasma, po, male SD rats
Method: Test objective: In this experiment, a single dose of each test compound was administered to SD rats intravenously and intragastrically, and the concentrations of the test compounds in plasma of rats were measured to evaluate the pharmacokinetic characteristics of the test compounds in rats.
Experimental animals: male SD rats, 200-250 g, 6-8 weeks old, 6 rats/compound, purchased from Chengdu Ddossy Experimental Animals Co., Ltd.
Experimental method: on the day of the test, 6 SD rats were randomly grouped according to their body weight; the animals were fasted with water available for 12 to 14 hours one day before the administration of a test compound, and were fed 4 hours after the administration.
Sampling: Before and after the administration, 0.1 mL of blood samples were drawn from the orbits of the animals under isoflurane anesthesia, and placed in an EDTAK2 centrifuge tube. Centrifugation was carried out at 5000 rpm at 4° C. for 10 min, and the plasma was collected.
Time points for plasma collection in IV&PO group: 0, 5 min, 15 min, 30 min, 1 h, 2 h, 4 h, 6 h, 8 h, and 24 h.
Before analysis and detection, all samples were stored at −60° C. The samples were analyzed quantitatively by LC-MS/MS.

CC(C)(C(=O)Nc1cnc(C#N)c(C(F)(F)F)c1)n1cc(C#CC2CN(c3ccc4c(c3)C(=O)N(C3CCC(=O)NC3=O)C4=O)C2)cn1 (stereo not shown) [Compound 4, N-(6-cyano-5-(trifluoromethyl)pyridin-3-yl)-2-(4-((1-(2-(2,6-dioxopiperidin-3-yl)-1,3-dioxoisoindolin-5-yl)azetidin-3-yl)ethynyl)-1H-pyrazol-1-yl)-2-methylpropanamide]
degradation effect on AR-FL (Full-length AR (AR-FL)): significant degradation effect | degradation effect on AR-Vs [1]: significant degradation effect | bioavailability ([2]; i.g. 5 mg/kg vs intravenous 2 mg/kg): 51.2 ± 9.7% | AUC(0-t) ([2]; i.g. 5 mg/kg): 29400 ± 5590 ng·h/mL
